These results are taken from patent US10179914B2, “CDC25A inhibitor for the treatment of drug resistant cancer or for the prevention of tumor relapse” (INSERM (INSTITUT NATIONAL DE LA SANTÉ ET DE LA RECHERCHE …, priority 2014, dated 2019).

What is called IC50 is the concentration that inhibits the measured activity by half.

Assay [1] relates to CDC25A. Description: CDC25A protein level by western blot. Format: cell-based, human. The following applies: for CDC25A protein level: 2 hours. How it is done: (a) MV4-11 (left panel) and MOLM-14 (right panel) FLT3-ITD expressing cells were treated for 2 hours with FLT3 inhibitor III (100 nM), and the protein levels of CDC25A, CDC25B, CDC25C, Cyclin A, Cyclin D1 and p27Kip1 were analyzed by western blot. (b) MOLM-14 (FLT3-ITD postive), KG1 and HL-60 (FLT3 wt positive) and K562 (FLT3 negative) cell lines were treated for 2 hours with FLT3 inhibitor III and the level of CDC25A was analyzed by western blot. Actin was used as a loading control.
(a) MV4-11 (left panel) and MOLM-14 (right panel) cells were treated for 2 hours with STAT5 inhibitor (100 nM). CDC25A, Pim1, and STAT5 protein and phosphorylation levels were analyzed by western blot. (b) MV4-11 and MOLM-14 cells were transfected for 24 hours with STAT5A/B siRNA and the impact on CDC25A protein level was analyzed by western blot. […] Actin was used as a loading control in these experiments. ns: non specific.
(a) MV4-11 cells were first treated by cycloheximide (50 μg/mL) for 90 minutes in order to completely down regulate CDC25A. […] The FLT3 inhibitor was added 30 minutes before medium wash. This western blot is representative of three independent experiments. […] (b) CDC25A mRNA expression was measured by quantitative RT-PCR after FLT3 inhibition for 2 hours (100 nM). […] (c) MV4-11 cells were treated with cycloheximide (50 μg/mL) for the indicated times. FLT3 inhibitor III (100 nM) was added 30 minutes before cycloheximide treatment, and left in the medium. This western blot is representative of three independent experiments.
Cell lines and reagents. […] Concerning MOLM-14 cell line, the presence of a monoallelic 21 bp FLT3-ITD mutation and of an MLL-containing ins(11; 9)(q23;p22p23) were verified (Hematology laboratory of Toulouse University Hospital, Prof E. Delabesse and Dr I. Luquet). KG1 and HL-60 (ACC-14 and ACC-3, DSMZ) cell lines were grown in Iscove's Modified Dulbecco's Medium (IMDM, Gibco) plus 20% FBS. All cells were grown in the presence of 100 units/ml of penicillin and streptomycin (Invitrogen) at 37° C. and 5% CO2.
siRNA. The MV4-11 cell line was transfected with the Amaxa nucleofection technology (Lonza, Koeln, Germany). […] Twenty-four or forty-eight hours after transfection, cells were counted (trypan blue staining), and western blotting was performed.
Western blot. 2×10^6 cells were usually lysed in 100 μL of NuPAGE® LDS Sample Buffer (Novex, Life Technologies, Carlsbad, Calif., USA), sonicated for 15 seconds, and boiled for 3 minutes. Proteins were then resolved on NuPAGE® 4-12% Bis-Tris Gels and transferred to nitrocellulose membrane. Saturation of the membrane was done for 1 hour in Tris Buffer Saline with Tween 0.1% (TBS-T) containing 5% non-fat milk or 5% bovine serum albumin. Membranes were blotted with proper antibodies overnight at 4° C., washed thrice with TBS-T, and incubated for 30 minutes with HRP-conjugated secondary antibody (Promega, Madison, Wis., USA).
In general terms: Immunoblotting shows a protein as a band on a membrane.

Assay [2] relates to Mia-Paca-2 tumors. The following applies: active after oral administration; cited from earlier work.
Assay [3] relates to human cell lines (tumor cell proliferation). The following applies: cited from earlier work.
Assay [4] deals with T1, Cdc25B (Homo sapiens, UniProt P30305).
T1 sequence (P30305 1-580): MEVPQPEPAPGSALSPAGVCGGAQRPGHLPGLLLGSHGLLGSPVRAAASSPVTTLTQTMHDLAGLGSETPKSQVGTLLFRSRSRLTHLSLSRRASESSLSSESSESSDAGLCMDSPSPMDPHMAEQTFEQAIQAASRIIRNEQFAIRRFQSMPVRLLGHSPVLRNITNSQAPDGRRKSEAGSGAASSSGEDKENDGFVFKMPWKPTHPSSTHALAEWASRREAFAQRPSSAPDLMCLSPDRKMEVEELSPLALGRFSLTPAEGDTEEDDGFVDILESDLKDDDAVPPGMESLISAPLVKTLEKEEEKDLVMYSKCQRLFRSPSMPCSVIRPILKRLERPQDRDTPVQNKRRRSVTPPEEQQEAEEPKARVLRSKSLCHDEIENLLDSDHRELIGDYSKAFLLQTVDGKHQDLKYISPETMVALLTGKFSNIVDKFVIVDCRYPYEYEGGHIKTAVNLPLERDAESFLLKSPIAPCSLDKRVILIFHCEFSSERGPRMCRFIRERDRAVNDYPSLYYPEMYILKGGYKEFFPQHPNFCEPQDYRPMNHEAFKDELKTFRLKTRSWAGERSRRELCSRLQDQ
The following applies: cited from earlier work.

Assay [5] has as its target Cdc25A (Homo sapiens, UniProt P30304). The following applies: cited from earlier work.
The target in assay [6] is Cdc25C (Homo sapiens, UniProt P30307). The following applies: cited from earlier work.
Assay [7] has as its system CDC25A mRNA. Description: CDC25A mRNA by quantitative RT-PCR. The format is cell-based, human. The following applies: two hours, 100 nM, MOLM-14 cells. How it is done: (a) MV4-11 cells were first treated by cycloheximide (50 μg/mL) for 90 minutes in order to completely down regulate CDC25A. Cells were then placed in normal culture conditions in the presence (lower panel) or the absence (upper panel) of FLT3 inhibitor (100 nM), and western blot analysis of CDC25A was performed at the indicated times. The FLT3 inhibitor was added 30 minutes before medium wash. This western blot is representative of three independent experiments. […] (b) CDC25A mRNA expression was measured by quantitative RT-PCR after FLT3 inhibition for 2 hours (100 nM). […] (c) MV4-11 cells were treated with cycloheximide (50 μg/mL) for the indicated times. FLT3 inhibitor III (100 nM) was added 30 minutes before cycloheximide treatment, and left in the medium. This western blot is representative of three independent experiments.
Quantitative RT-PCR. Total RNA was extracted by RNeasy Kit (Qiagen) according to the manufacturer. RNA quality and purity was assessed by using the Agilent RNA 6000 Nano kit (Agilent Technologies, Santa Clara, Calif., USA). cDNA was generated with the SuperScript III First-Strand Synthesis System for RT-PCR (Invitrogen) following the manufacturer instructions. […] Results were analyzed with the LightCycler®480 software release 1.5.0 SP4 using the conventional ΔΔCt method.

Assay [8] has as its system MOLM-14 and MV4-11 cells. Description: Differentiation of FLT3-ITD AML cell lines (surface markers, morphology). Format: cell-based, human. The following applies: another CDC25 inhibitor. The procedure:
(a-b) MOLM-14 and MV4-11 cells were treated for different times with IRC-083864 (100 nM and 200 nM) and the expression of the cell surface markers CD11b, CD14 and CD15 were followed by flow cytometry analysis. (c) MOLM-14 and MV4-11 cells were treated for different times with IRC-083864 (100 nM) and morphological changes were estimated by microscopy after cells were cytospun and stained at days 8 and 13. Original magnification ×100. (d) MOLM-14 cells were treated for different times with IRC-083864 (100 nM) and c-myc expression as well as C/EBPα phosphorylation on serine 21 were analyzed by western blot at day 1, and C/EBPε expression after 6 days of treatment. (e) MOLM-14 cells were transfected with CDC25A shRNA The expression of the cell surface markers CD11b, CD14 and CD15 were followed by flow cytometry analysis at day 3 and 6 (upper panel), and their morphology was analyzed by microscopy after 6 days (lower panel). Original magnification ×100. (f) MOLM-14 cells were transfected with CDC25A siRNA, and their morphology was analyzed by microscopy after 3 days (upper panel). Original magnification ×100. The efficiency of CDC25A siRNA was assessed by western blot analysis (lower panel).
Lentiviral infections. To generate lentiviral vectors expressing CDC25A protein, sequences were cloned into the pTrip-TAL-Ires-GFP lentiviral vector. We used 293-T packaging cells, co-transfected with lentiviral protein (GAG, POL, and ENV) encoding plasmids, and plasmids containing a control or CDC25A genes, separately. Supernatants containing lentivirus were collected 48 h after transfection, during 3 consecutive days. MOLM-14 cells were plated at 5×10^5 cells in 200 μl in serum-free medium and 5 μl of lentiviral supernatant was added during 3 h. Cells were then grown in 10% FBS RPMI medium.
Flow cytometry. Apoptotic cells were detected with Annexin V-FITC detection kit from BD Pharmingen (San Diego, Calif., USA) according to the manufacturer instructions. To evaluate AML cell differentiation, cells were stained for 30 min with the following anti-human monoclonal antibodies: CD11b-PE (Beckman Coulter), CD14-FITC (BD Biosciences), CD15-APC (BD Biosciences). For patient samples, additional hCD45-APC-H7 (BD Biosciences), Annexin V-Pacific Blue (BioLegend, San Diego, Calif., USA) and 7-AAD (Sigma) were used; and for bone marrow mice cells, additional CD33-FITC, CD44-PE Cy7, mCD45-PerCP Cy 5.5, CD14-Alexa 700 were used. Data were collected on a LSRII or a LSRFortessa cytometer (BD Biosciences), and analyzed with FlowJo software. A minimum of 10,000 events was collected.
Morphological examination. […] were spun at 500 rpm for 5 minutes onto glass slides and May-Grünwald-Giemsa stained at the Toulouse University Hospital hematology laboratory.

Assay [9] concerns FLT3-wild type primary AML samples. Description: Differentiation of FLT3 wild-type primary AML samples. Format: cell-based, human. The following applies: same conditions. The text has this: Patient samples. Patient AML samples were obtained after informed consent in accordance with the Declaration of Helsinki and stored at the HIMIP collection. According to the French law, HIMIP collection has been declared to the Ministry of Higher Education and Research (DC 2008-307 collection 1) and obtained a transfer agreement (AC 2008-129) after approbation by ethical committees (Comité de Protection des Personnes Sud-Ouest et Outremer II and APHP ethical committee). Clinical and biological annotations of the samples have been declared to the CNIL (Comité National Informatique et Libertés i.e. Data processing and Liberties National Committee). Frozen cells were thawed in IMDM medium with 20% FBS and immediately processed for treatment. All patients were diagnosed at the Department of Hematology of Toulouse University Hospital.
Co-cultures. […]
Flow cytometry. Apoptotic cells were detected with Annexin V-FITC detection kit from BD Pharmingen (San Diego, Calif., USA) according to the manufacturer instructions. […] Data were collected on a LSRII or a LSRFortessa cytometer (BD Biosciences), and analyzed with FlowJo software. […]

Assay [10] deals with human Hep 3B tumor cells. The following applies: read-out: IC50 growth of human Hep 3B tumor cells; cited from earlier work.
Assay [11] relates to transplanted rat hepatoma cells (Fisher F344). The following applies: delivered intraperitoneally; cited from earlier work.

Cdc25C, sequence (P30307 whole entry): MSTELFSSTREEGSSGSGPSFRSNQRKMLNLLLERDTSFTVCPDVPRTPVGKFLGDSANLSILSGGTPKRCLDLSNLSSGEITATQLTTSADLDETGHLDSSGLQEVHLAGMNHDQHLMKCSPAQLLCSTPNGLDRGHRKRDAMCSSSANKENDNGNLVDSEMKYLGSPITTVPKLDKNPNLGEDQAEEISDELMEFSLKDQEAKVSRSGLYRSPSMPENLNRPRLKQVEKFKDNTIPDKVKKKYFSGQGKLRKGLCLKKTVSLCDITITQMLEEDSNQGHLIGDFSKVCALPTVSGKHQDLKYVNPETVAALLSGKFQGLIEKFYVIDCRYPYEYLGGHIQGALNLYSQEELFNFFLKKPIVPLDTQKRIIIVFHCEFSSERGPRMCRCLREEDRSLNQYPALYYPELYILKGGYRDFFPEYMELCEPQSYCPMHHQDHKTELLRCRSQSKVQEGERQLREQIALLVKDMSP
Cdc25A, sequence (P30304 whole entry): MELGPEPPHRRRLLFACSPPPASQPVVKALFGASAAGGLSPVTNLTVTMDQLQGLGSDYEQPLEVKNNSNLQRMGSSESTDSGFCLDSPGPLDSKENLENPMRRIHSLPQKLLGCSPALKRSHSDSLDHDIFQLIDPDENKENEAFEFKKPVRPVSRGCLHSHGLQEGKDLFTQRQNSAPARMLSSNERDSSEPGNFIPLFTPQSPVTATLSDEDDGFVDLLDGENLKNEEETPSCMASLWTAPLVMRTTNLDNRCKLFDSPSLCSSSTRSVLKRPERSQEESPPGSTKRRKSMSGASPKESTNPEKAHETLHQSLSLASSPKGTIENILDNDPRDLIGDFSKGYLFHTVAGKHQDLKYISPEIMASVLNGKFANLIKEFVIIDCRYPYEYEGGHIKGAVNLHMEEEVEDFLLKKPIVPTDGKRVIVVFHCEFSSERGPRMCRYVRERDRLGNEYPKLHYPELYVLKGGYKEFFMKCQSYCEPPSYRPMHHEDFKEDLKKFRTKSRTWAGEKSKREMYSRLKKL

With `CC(C)(C)c1cc(NC(=O)Nc2ccc(-c3cn4c(n3)sc3cc(OCCN5CCOCC5)ccc34)cc2)no1` [AC220, quizartinib], the CDC25A protein level result in assay [1] (MV4-11 and MOLM-14 cells) is reported as “induced CDC25A down-regulation”.

As for `Cc1nc2c(s1)C(=O)C=C(NCCN(C)C)C2=O` [BN82685, reference compound], in [2], the “growth of Mia-Paca-2 tumors xenografted into nude mice” value is on record as “inhibited the growth”. In addition, in [3], the “growth inhibition in presence of classical resistance mechanisms (drug efflux pumps, P-glycoprotein, multi-drug resistance proteins)” value is reported as “unaffected”. Moreover, the “duration of proliferation inhibition after short treatment” value in [3] (treatment time 1 h) is on record as 96 h. Further, the IC50 in assay [4] was 250 nM; in assay [5], 250 nM; in [6] it was 171 nM.

In the case of `c1ccc(-c2cnc(Nc3ccc(OCCN4CCCC4)cc3)s2)cc1` [FLT3 inhibitor III], in assay [7], the “CDC25A mRNA level” value is “significantly reduced”. Further, the CDC25A protein level result is recorded as “did not modify” in assay [1] (KG1, HL-60 (FLT3-wild type) and K562 (FLT3 non-expressing) cells); “induced CDC25A down-regulation” in [1] (MV4-11 and MOLM-14 cells). Also, in [1] (cycloheximide 50 μg/mL, inhibitor 100 nM), the “stability of CDC25A protein (half-life with cycloheximide)” value is reported as “did not significantly modify”. The “accumulation of CDC25A protein (rate of synthesis)” value in assay [1] (time course, 100 nM, FIG. 3a) is reported as “significantly decreased”.

As for `O=C1C(SCCO)=C(SCCO)C(=O)c2ccccc21` [NSC-95397, reference compound], in [8], the “CD11b, CD14 and CD15 markers expression” value is “modifications”; the nuclear morphology entry is “nuclear morphological changes”. Further, the “differentiation of FLT3-wild type samples” value in assay [9] is on record as “no evidence of differentiation”.

On to `O=C1C(SCCO)=C(SCCO)C(=O)N1c1ccc(-c2ccccc2)cc1` [PM20], for which the IC50 in assay [10] is 700 nM. Further, in assay [11], the “growth of transplanted rat hepatoma cells in vivo” value was “inhibits the growth”.
